Publication PMC9823097, “Dysregulation of PRMT5 in chronic lymphocytic leukemia promotes progression with high risk of Richter’s transformation” (Nature Communications, 2023)

Legend:
HG3 cells = test: Cell growth curves over 12 days, HG3; assay type: cell-based; conditions: for anti-proliferative potency compared to PRT382: HG3
Description: (§1) Live cells/mL were counted on days 3, 6, 10, and 12. […] The split factor was calculated at indicated time points by dividing the counted cells/mL by 3E5. Cell growth was extrapolated over time by multiplying the subsequent cell count by the previous split factor. Cell growth is plotted as fold change relative to DMSO-treated cells.

Mec-1 cells = test: Cell growth curves over 12 days, Mec-1; assay type: cell-based; conditions: for anti-proliferative potency compared to PRT382: Mec-1
Description: as §1

## Nc1nc2cc(CC[C@H]3C[C@@H](n4ccc5c(N)ncnc54)[C@H](O)[C@@H]3O)ccc2cc1Br [JNJ-64619178]
HG3 cells; HG3, 1 nM, day 0
  Rep 1 Live Cells [Fold Change]: 1 Fold Change
  Rep 2 Live Cells [Fold Change]: 1 Fold Change
HG3 cells; HG3, 1 nM, day 3
  Rep 1 Live Cells [Fold Change]: 6.233 Fold Change
  Rep 2 Live Cells [Fold Change]: 6.733 Fold Change
HG3 cells; HG3, 1 nM, day 6
  Rep 1 Live Cells [Fold Change]: 33.0367 Fold Change
  Rep 2 Live Cells [Fold Change]: 39.5022 Fold Change
HG3 cells; HG3, 1 nM, day 10
  Rep 1 Live Cells [Fold Change]: 290.723 Fold Change
  Rep 2 Live Cells [Fold Change]: 314.043 Fold Change
HG3 cells; HG3, 1 nM, day 12
  Rep 1 Live Cells [Fold Change]: 802.395 Fold Change
  Rep 2 Live Cells [Fold Change]: 1088.68 Fold Change
HG3 cells; HG3, 10 nM, day 0
  Rep 1 Live Cells [Fold Change]: 1 Fold Change
  Rep 2 Live Cells [Fold Change]: 1 Fold Change
HG3 cells; HG3, 10 nM, day 3
  Rep 1 Live Cells [Fold Change]: 4.733 Fold Change
  Rep 2 Live Cells [Fold Change]: 5.9 Fold Change
HG3 cells; HG3, 10 nM, day 6
  Rep 1 Live Cells [Fold Change]: 4.86 Fold Change
  Rep 2 Live Cells [Fold Change]: 7.375 Fold Change
HG3 cells; HG3, 10 nM, day 10
  Rep 1 Live Cells [Fold Change]: 4.276 Fold Change
  Rep 2 Live Cells [Fold Change]: 8.039 Fold Change
HG3 cells; HG3, 10 nM, day 12
  Rep 1 Live Cells [Fold Change]: 4.945 Fold Change
  Rep 2 Live Cells [Fold Change]: 8.633 Fold Change
HG3 cells; HG3, 100 nM, day 0
  Rep 1 Live Cells [Fold Change]: 1 Fold Change
  Rep 2 Live Cells [Fold Change]: 1 Fold Change
HG3 cells; HG3, 100 nM, day 3
  Rep 1 Live Cells [Fold Change]: 4.133 Fold Change
  Rep 2 Live Cells [Fold Change]: 5.6 Fold Change
HG3 cells; HG3, 100 nM, day 6
  Rep 1 Live Cells [Fold Change]: 4.064 Fold Change
  Rep 2 Live Cells [Fold Change]: 5.619 Fold Change
HG3 cells; HG3, 100 nM, day 10
  Rep 1 Live Cells [Fold Change]: 2.5 Fold Change
  Rep 2 Live Cells [Fold Change]: 4.6354 Fold Change
HG3 cells; HG3, 100 nM, day 12
  Rep 1 Live Cells [Fold Change]: 1.958 Fold Change
  Rep 2 Live Cells [Fold Change]: 5.387 Fold Change
HG3 cells; HG3, 1 µM, day 0
  Rep 1 Live Cells [Fold Change]: 1 Fold Change
  Rep 2 Live Cells [Fold Change]: 1 Fold Change
HG3 cells; HG3, 1 µM, day 3
  Rep 1 Live Cells [Fold Change]: 1.6 Fold Change
  Rep 2 Live Cells [Fold Change]: 2.303 Fold Change
HG3 cells; HG3, 1 µM, day 6
  Rep 1 Live Cells [Fold Change]: 1.024 Fold Change
  Rep 2 Live Cells [Fold Change]: 1.536 Fold Change
HG3 cells; HG3, 1 µM, day 10
  Rep 1 Live Cells [Fold Change]: 3.369 Fold Change
  Rep 2 Live Cells [Fold Change]: 0.4381 Fold Change
HG3 cells; HG3, 1 µM, day 12
  Rep 1 Live Cells [Fold Change]: 2.347 Fold Change
  Rep 2 Live Cells [Fold Change]: 3.411 Fold Change
HG3 cells; high doses (1µM)
  anti-proliferative potency compared to PRT382: similar
HG3 cells; lower doses (10nM, 100nM)
  anti-proliferative potency compared to PRT382: more potent
Mec-1 cells; Mec-1, 1 nM, day 0
  Rep 1 Live Cells [Fold Change]: 1 Fold Change
  Rep 2 Live Cells [Fold Change]: 1 Fold Change
Mec-1 cells; Mec-1, 1 nM, day 3
  Rep 1 Live Cells [Fold Change]: 6.73 Fold Change
  Rep 2 Live Cells [Fold Change]: 5.77 Fold Change
Mec-1 cells; Mec-1, 1 nM, day 6
  Rep 1 Live Cells [Fold Change]: 33.4 Fold Change
  Rep 2 Live Cells [Fold Change]: 34.4 Fold Change
Mec-1 cells; Mec-1, 1 nM, day 10
  Rep 1 Live Cells [Fold Change]: 194 Fold Change
  Rep 2 Live Cells [Fold Change]: 282 Fold Change
Mec-1 cells; Mec-1, 1 nM, day 12
  Rep 1 Live Cells [Fold Change]: 737 Fold Change
  Rep 2 Live Cells [Fold Change]: 940 Fold Change
Mec-1 cells; Mec-1, 10 nM, day 0
  Rep 1 Live Cells [Fold Change]: 1 Fold Change
  Rep 2 Live Cells [Fold Change]: 1 Fold Change
Mec-1 cells; Mec-1, 10 nM, day 3
  Rep 1 Live Cells [Fold Change]: 4.7 Fold Change
  Rep 2 Live Cells [Fold Change]: 4.73 Fold Change
Mec-1 cells; Mec-1, 10 nM, day 6
  Rep 1 Live Cells [Fold Change]: 4.72 Fold Change
  Rep 2 Live Cells [Fold Change]: 5.92 Fold Change
Mec-1 cells; Mec-1, 10 nM, day 10
  Rep 1 Live Cells [Fold Change]: 4.93 Fold Change
  Rep 2 Live Cells [Fold Change]: 4.62 Fold Change
Mec-1 cells; Mec-1, 10 nM, day 12
  Rep 1 Live Cells [Fold Change]: 3.86 Fold Change
  Rep 2 Live Cells [Fold Change]: 2.38 Fold Change
Mec-1 cells; Mec-1, 100 nM, day 0
  Rep 1 Live Cells [Fold Change]: 1 Fold Change
  Rep 2 Live Cells [Fold Change]: 1 Fold Change
Mec-1 cells; Mec-1, 100 nM, day 3
  Rep 1 Live Cells [Fold Change]: 4.17 Fold Change
  Rep 2 Live Cells [Fold Change]: 4.67 Fold Change
Mec-1 cells; Mec-1, 100 nM, day 6
  Rep 1 Live Cells [Fold Change]: 3.53 Fold Change
  Rep 2 Live Cells [Fold Change]: 4.53 Fold Change
Mec-1 cells; Mec-1, 100 nM, day 10
  Rep 1 Live Cells [Fold Change]: 2.56 Fold Change
  Rep 2 Live Cells [Fold Change]: 2.9 Fold Change
Mec-1 cells; Mec-1, 100 nM, day 12
  Rep 1 Live Cells [Fold Change]: 1.15 Fold Change
  Rep 2 Live Cells [Fold Change]: 1.27 Fold Change
Mec-1 cells; Mec-1, 1 µM, day 0
  Rep 1 Live Cells [Fold Change]: 1 Fold Change
  Rep 2 Live Cells [Fold Change]: 1 Fold Change
Mec-1 cells; Mec-1, 1 µM, day 3
  Rep 1 Live Cells [Fold Change]: 1.48 Fold Change
  Rep 2 Live Cells [Fold Change]: 1.38 Fold Change
Mec-1 cells; Mec-1, 1 µM, day 6
  Rep 1 Live Cells [Fold Change]: 0.841 Fold Change
  Rep 2 Live Cells [Fold Change]: 2.27 Fold Change
Mec-1 cells; Mec-1, 1 µM, day 10
  Rep 1 Live Cells [Fold Change]: 1.28 Fold Change
  Rep 2 Live Cells [Fold Change]: 1.57 Fold Change
Mec-1 cells; Mec-1, 1 µM, day 12
  Rep 1 Live Cells [Fold Change]: 0.808 Fold Change
  Rep 2 Live Cells [Fold Change]: 0.765 Fold Change
Mec-1 cells; high doses (1µM)
  anti-proliferative potency compared to PRT382: similar
Mec-1 cells; lower doses (10nM, 100nM)
  anti-proliferative potency compared to PRT382: more potent
